Test results as given in patent US20110300067A1, “METHODS FOR INCREASING EFFICACY OF RADIOIMMUNOTHERAPY OF MELANOMA” (priority 2008, published 2011).

Key:
metastatic melanoma = details: patients with metastatic melanoma; Sun and Schuchter, 2001; cited from earlier work
mouse melanoma models = details: 50 mg/kg/day×5 days; Fodstad et al. 1980; cited from earlier work
A2058 tumor metabolism = experiment: ^18F-FDG microPET of RIT or chemotherapy treated melanoma-bearing mice; assay type: in vivo; details: re-imaged one week after initial PET scan; FIG. 5
Description: MicroPositron Emission Tomography (microPET) of RIT or chemotherapy treated melanoma-bearing mice. To understand the effects of RIT with melanin-binding mAbs and chemotherapy with DTIC on A2058 tumor metabolism, microPET was performed of mice treated with DTIC or with RIT. For this purpose 6-7 mm in diameter tumor-bearing mice were fasted for 3 hrs, then placed in an anesthesia chamber with 1.5% isoflurane-oxygen mixture. Anesthesia continued through the IV injection, during a 1 hr uptake and through the imaging portion of the procedure. Each mouse was placed on a heating pad before scanning to maintain normal body temperature. Mice were injected via tail-vein with 11.1 to 14.8 MBq (300 to 400 μCi) ^18F-FDG and 1 hr later imaged in an R4 microPET scanner manufactured by CTI Concorde. The Full Width at Half Maximum for the R4 is about 2.1 mm with a field of view of 120 mm and a depth of field of 78 mm. Images were acquired for 10 minutes with a lower level discrimination of 350 keV and upper level discrimination of 650 keV. The timing window was set to 6 nsec. All of the default settings were selected during the histogram process. […] Data corrected for dead time counting losses, arc correction, random coincidences and the measured uniformity of detector responses (i.e. normalized) but not corrected for attenuation or scatter. […]

A2058 human melanoma [1] = experiment: chemotherapy, RIT and combination of chemotherapy and RIT in A2058 melanoma-bearing mice; assay type: in vivo; details: FIG. 4A
Description: Animal model and therapy studies. All animal studies were carried out in accordance with the guidelines of the Institutes for Animal Studies at the Albert Einstein College of Medicine. For RIT studies, 6-12 week-old female nude mice were implanted subcutaneously with 8×10^6 A2058 human melanoma cells into the right flank and used for therapeutic experiments 12 days after tumor volumes were approximately 0.15 cm^3 (0.02-0.4 cm^3).
For the experiment comparing the efficacy of chemotherapy, RIT and combination of chemotherapy, and RIT in A2058 melanoma-bearing mice, mice were inoculated with A2058 melanoma cells, randomized into groups of five after tumor volumes reached 0.15 cm^3 (0.02-0.4 cm^3). On Day 0 the treatment of groups #1 and 2 with 50 mg/kg DTIC for 5 consecutive days IP was initiated. Mice in group #3 received a single IP injection of 1 mCi ^188Re-6D2 mAb on Day 0. Twenty-four hrs after completion of pre-treatment with DTIC (Day 6), mice in group #2 received single IP dose of 1 mCi ^188Re-6D2 mAb. Group #4 was given PBS IP on Day 0.
Statistical analysis. The Wilcoxon rank sum test was used to compare tumor sizes between different treatment groups in therapy studies. Differences were considered statistically significant when P values were <0.05.

A2058 human melanoma [2] = experiment: histology of A2058 tumors from DTIC-treated mice (melanin release); assay type: in vivo; details: 50 mg/kg IP for 5 days; H&E, iron stain, melanin bleach; FIG. 3
Description: Combination of chemotherapy and RIT. For combined chemotherapy with dacarbazine and RIT of A2058 melanoma-bearing nude mice, a preliminary experiment was performed which was aimed at determining the tolerability of dacarbazine by tumor-bearing mice and the ability of dacarbazine treatment to release some melanin from the melanoma cells. For this purpose 10 mg/mL dacarbazine in citrate buffer with pH ˜5.5 was prepared by dissolving 100 mg dacarbazine (Sigma) in 9.5 mL citrate buffer, pH 3.9 and 0.5 mL 0.1 M HCl. Five mice with A2058 tumors were treated for 5 days IP with 50 mg/kg dacarbazine (1.1 mg/mouse). Three days after completion of DTIC treatment, two mice were sacrificed, their tumors removed, fixed in ethanol/buffered formalin, cut into 5 μm slices and analyzed histologically for the presence of melanin by staining with hematoxylin and eosin (H&E), iron staining or by melanin bleach. The slides were viewed under 400× magnification in polarized light.

Which response rate (metastatic melanoma) does the source give for `CN(C)N=Nc1[nH]cnc1C(N)=O` [DTIC, 5-(3,3-dimethyl-1-triazeno)imidazole-4-carboxamide] here?
The response rate was 15% to 20%.

What about the tumor growth (mouse melanoma models) of the same compound?
The tumor growth was “effectively slowed tumor growth”.

And the “^18F-FDG uptake in tumors” value (A2058 tumor metabolism)?
Its value is “became less diffuse and concentrated in the center of the tumor”.

And the “tumor growth from day 15” value (A2058 human melanoma [1]; compared with combined treatment or RIT alone, p=0.02)?
The value was “started to grow much faster”.

And the “tumor growth up to Day 15” value (A2058 human melanoma [1]; early time points post-therapy, compared with RIT alone)?
Its value is “more effective in impairing tumor growth than RIT alone”.

What about the “release of melanin from tumor cells (histology)” value (A2058 human melanoma [2]) of the same compound?
The value was “releases some melanin from the cells”.
